pIC50: −log10 of the molar value. Like-named read-outs stand apart in the source and are kept apart here. Where only a bound is given, the exact number is not on record here.

Data set [1] in a line: Plasma pharmacokinetics after 16 weeks of once daily administration (LC-MS/MS). The format is in vivo, mouse. As to the method:
At the end of the defined treatment period, mice were humanely euthanized by transcardial perfusion with Ringer solution after C02 asphyxiation. […]. Before perfusion, blood samples were collected via cardiac puncture into K2EDTA tubes and stored on wet ice. Whole blood was processed to plasma by centrifugation (3000 g for 10 minutes at 5° C.) within 30 min of collection and stored at −75° C.
Unless otherwise stated, the methodology and sample collection were performed as in Example 2.

Data set [2] in a line: Stability of dosing formulation. As to conditions: 0.01 mg/mL-2 mg/mL in purified water/citric acid/NaOH, storage 15-25° C. Format: physicochemical. From the text:
• 1. Introduction and preparation of vehicle control • 1.1. Read the method prior to proceeding with laboratory work • 1.2. Read Study Plan • 1.3. Ensure the work-station is clean and select the correct equipment, clean glassware etc. for the study. • 1.4. Formulate in ascending order of concentration. • 1.5. Start with control group—measure the required volume of purified water and magnetically stir. Whilst magnetically stirring, adjust pH to 3.5-2.5 using 1 M citric acid. Record volumes in raw data. • 1.6. Stir for a minimum of 30 minutes. Record stir times in raw data. • 1.7. Adjust the pH to 4.5-5.5 using 0.1 M NaOH. Record volumes in raw data. • 1.8. Stir for a minimum of 20 minutes using a magnetic stirrer. Record stir times in the raw data. • 1.9. Sample at this point if required. • 2. Test item formulations • 2.1. Weigh the required amount of test item: e.g., For a 0.9 mg/mL target concentration in 600 mL, weigh 540 mg. • 2.2. Add 70% of the final volume of purified water to the test item to obtain a thin suspension (may be difficult to see at these low concentrations): e.g., 420 mL • 2.3. Add not more than 3 molar equivalents of citric acid, and record the pH which should be pH 3.5-2.5, e.g., 3.74 mL of 1 M citric acid solution in water. • Note: The suspension should clear up as an indication for dissolution of the test item. • 2.4. […]

The target of another data set is T1, GCS (Homo sapiens, UniProt Q16739).
T1 sequence (Q16739 1-394): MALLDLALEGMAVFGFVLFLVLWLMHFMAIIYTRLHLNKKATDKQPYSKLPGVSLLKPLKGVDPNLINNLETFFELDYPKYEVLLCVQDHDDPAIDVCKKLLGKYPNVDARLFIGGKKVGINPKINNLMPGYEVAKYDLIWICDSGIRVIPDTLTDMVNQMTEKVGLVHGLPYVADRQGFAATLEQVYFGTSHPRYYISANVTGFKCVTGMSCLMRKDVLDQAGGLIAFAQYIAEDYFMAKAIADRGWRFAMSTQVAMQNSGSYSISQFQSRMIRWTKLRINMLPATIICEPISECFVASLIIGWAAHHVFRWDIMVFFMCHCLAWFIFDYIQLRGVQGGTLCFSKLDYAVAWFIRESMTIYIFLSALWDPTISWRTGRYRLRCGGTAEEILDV
As to the kind of experiment: In vitro potency on GCS (glucosylceramide synthase). Format: biochemical.

Data set [3] can be described thus: Dynamic vapour sorption (DVS). Format: physicochemical. The text has this: In addition, the behaviour of the sample of the Form 3 crystalline form of compound of formula (I) obtained by equilibration with ethyl acetate was investigated under variable water vapour pressures (DVS measurement). At the highest relative humidity of 95% the sample absorbed about 1.2% of water that was released when the relative humidity was returned to the 50% RH. The amount of absorbed water is small, and the water sorption is reversible. […] For Form 2, at high relative humidity the sample absorbed about 18% of water; however, most of the absorbed water was released when the relative humidity was returned to the 50% RH.
Dynamic vapour sorption (DVS) measurements were performed with an SPS11-100n “Sorptions Prufsystem” from ProUmid (formerly “Projekt Messtechnik”), August-Nagel-Str. 23, 89079 Ulm (Germany). About 5 mg to 20 mg of sample was put into an aluminum sample pan. Humidity change rates of 5% per hour were used.

Data set [4] in a line: Brain pharmacokinetics after 16 weeks of once daily administration (LC-MS/MS). The format is in vivo, mouse. As to the method: Brain samples were collected, rinsed with saline and blotted dry. Samples were fixed in 4% PFA for immunohistochemical analyses; frozen and kept for gene expression and molecular biology analyses; and used frozen for LC-MS/MS analysis.
Unless otherwise stated, the methodology and sample collection were performed as in Example 2. […] Twenty-four hours after the last dose the animals were euthanized at varying time-points and AZ-3102 was measured by LC-MS/MS. […] However, exposure (AUC0-24) proportionality was well conserved between doses: 6 versus 3 (1.8-fold); 3 and 1.5 (2.0-fold) and 1.5 and 0.5 (2.4-fold). […] The reduced clearance in the brain versus plasma has also been observed in prior studies with rats and dogs (internal data). […] The plasma concentration at all doses was approximately 1 ng/mL after 24 h and in the brain the concentration was greater than 20 ng/g tissue.

Consider `OC[C@H]1[C@@H](O)[C@H](O)[C@@H](O)CN1CCCCCOCc1ccc(-c2ccccc2)c(F)c1` [AZ-3102], for which the “Cmax difference between lowest and highest dose” value in data set [1] (6 vs 0.5 mg/kg/day) is listed as “approximately 7 fold”. In addition, the Cmax in data set [1] (Hexb (−/−) (Sandhoff mice), mouse, oral, plasma, 0.5 to 6 mg/kg/day, steady state, read-out: Cmax, range over doses) is 100 to 674 ng/mL; in data set [1] (Hexb (−/−) (Sandhoff model), mouse, plasma, po, Sand A, Hexb (−/−), 6 mg/kg/day, 16 weeks once daily, read-out: Cmax), 674 ng/mL; in data set [1] (Hexb (−/−) (Sandhoff model), mouse, plasma, po, Sand B, Hexb (−/−), 3 mg/kg/day, 16 weeks once daily, read-out: Cmax) it was 446 ng/mL; in data set [1] (Hexb (−/−) (Sandhoff model), mouse, plasma, po, Sand D, Hexb (−/−), 1.5 mg/kg/day, 16 weeks once daily, read-out: Cmax), 159 ng/mL; in data set [1] (Hexb (−/−) (Sandhoff model), mouse, plasma, po, Sand E, Hexb (−/−), 0.5 mg/kg/day, 16 weeks once daily, read-out: Cmax) it was 100 ng/mL; in data set [1] (mouse, plasma, po, Het B, Hexb (+/−), 3 mg/kg/day, 16 weeks once daily, read-out: Cmax), 370 ng/mL. Moreover, the AUC(0-t) was 417 to 3610 ng·h/mL in data set [1] (Hexb (−/−) (Sandhoff mice), mouse, oral, plasma, 0.5 to 6 mg/kg/day, steady state, read-out: mean AUC0-24, range over doses); 3610 ng·h/mL in data set [1] (Hexb (−/−) (Sandhoff model), mouse, plasma, po, Sand A, Hexb (−/−), 6 mg/kg/day, 16 weeks once daily, read-out: AUC0-24); 1980 ng·h/mL in data set [1] (Hexb (−/−) (Sandhoff model), mouse, plasma, po, Sand B, Hexb (−/−), 3 mg/kg/day, 16 weeks once daily, read-out: AUC0-24); 987 ng·h/mL in data set [1] (Hexb (−/−) (Sandhoff model), mouse, plasma, po, Sand D, Hexb (−/−), 1.5 mg/kg/day, 16 weeks once daily, read-out: AUC0-24); 417 ng·h/mL in data set [1] (Hexb (−/−) (Sandhoff model), mouse, plasma, po, Sand E, Hexb (−/−), 0.5 mg/kg/day, 16 weeks once daily, read-out: AUC0-24); 1960 ng·h/mL in data set [1] (mouse, plasma, po, Het B, Hexb (+/−), 3 mg/kg/day, 16 weeks once daily, read-out: AUC0-24). Further, the concentration at 24 h was about 1 ng/mL in data set [1] (Hexb (−/−) and Hexb (+/−), mouse, plasma, oral, all doses); over 20 ng/g in data set [4] (Hexb (−/−) and Hexb (+/−), mouse, brain, oral, all doses). Further, the Cmax/D in data set [1] (Sand E, Hexb (−/−), 0.5 mg/kg/day) is 200 (ng/mL)/(mg/kg). For the same molecule, the Stability of formulation in data set [2] worked out at 8 days. For the same molecule, on GCS, the “inhibitory activity on GCS” value is “low nM”. At GCS (in vitro potency), this molecule had a pIC50 of 8.60. Further, the hygroscopicity result in data set [3] (DVS) is reported as “non-hygroscopic or substantially non-hygroscopic”. The “water absorbed (DVS)” value in data set [3] (highest relative humidity of 95%, reversible) is “about 1.2%”. Besides, in data set [4] (24 h period, most dose groups), the “concentration profile in brain” value is “sustained with very little decrease”.

Values taken from US20250120958A1, “Treatment of GM2 Gangliosidosis” (Azafaros B.V., priority 2022, published 2025).
